Results published in the NIST ThermoML archive (doi:10.1021/acs.jced.8b00643).

Legend:
[1] = for vapor or sublimation pressure: Transpiration method
[2] = Molar enthalpy of transition or fusion; conditions: Crystal; DSC

O=C1NCCCO1 [tetrahydro-1,3-oxazin-2-one]
Conditions	mass density [kg/m3]
[1], 293 K, 101.33 kPa, Crystal, Pycnometric method	1490

[1]
Conditions	Triple point temperature [K]	vapor or sublimation pressure [kPa]
327.7 K, Crystal	–	0.00023
332.7 K, Crystal	–	0.00039
337.7 K, Crystal	–	0.00061
342.7 K, Crystal	–	0.001
345.7 K, Crystal	–	0.00134
348.6 K, Crystal	–	0.00167
352.6 K, Crystal	–	0.0024
358 K, Liquid	–	0.00409
361.3 K, Liquid	–	0.00517
365.3 K, Liquid	–	0.00677
368 K, Liquid	–	0.00807
370.2 K, Liquid	–	0.0095
372.8 K, Liquid	–	0.01116
377.4 K, Liquid	–	0.01498
380.3 K, Liquid	–	0.01771
382.2 K, Liquid	–	0.02005
385.1 K, Liquid	–	0.02395
Crystal, DSC	355.3	–

Conditions	Molar enthalpy of transition or fusion [kcal/mol]
[2]	3.66
